According to patent US20220218679A1, “NOVEL COMPOUNDS AND PHARMACEUTICAL COMPOSITIONS THEREOF FOR THE TREATMENT OF INFLAMMATORY DISORDERS” (Galapagos NV, priority 2019, published 2022):

Assays:
[1] = tested on: sclerodermatous cGvHD in BALB/c (H-2d) mice; assay: Murine sclerodermatous chronic graft-versus host disease (cGvHD); assay type: in vivo; conditions: 10 mg/kg b.i.d., day 21 to day 56 post transplantation
Description: 5.10. Murine Sclerodermatous Chronic Graft-Versus Host Disease (cGvHD)
In this cGvHD model, fibrosis is induced in BALB/c (H-2d) mice by allogeneic transplantation of bone marrow cells and splenocytes from B10.D2 (H-2d) donor mice (minor HLA mismatch). The recipient mice develop inflammation-driven dermal and pulmonary fibrosis resembling patients with rapidly progressive diffuse cutaneous systemic sclerosis. (Zerr et al., 2012)
The treatment is provided only after the onset of first clinical symptoms of sclerodermatous cGvHD. […]
The anti-fibrotic effects on skin were analysed by determination of dermal thickness, quantification of lesional collagen and staining for myofibroblasts.
In case of positive effects on skin fibrosis, effects on pulmonary fibrosis were analysed by Ashcroft scoring, by hydroxyproline content and by quantification of the collagen covered area using SirCol staining.
Based on individual animal raw data, the means for each group were determined and percent change from disease controls was calculated. Treatment groups were compared to disease controls using a one-way analysis of variance (1-way ANOVA) with a Dunnett's post-hoc analysis for measured (parametric) data or a Kruskal-Wallis test with a Dunn's post-hoc analysis for scored (non-parametric) data.

[2] = tested on: MIA induced inflammatory hypersensitivity to pain; assay: MIA rat pain model (weight bearing); assay type: in vivo, Male Sprague Dawley
Description: 5.11.1. Principle of the Assay
The mono-iodoacetate (MIA) model has become a standard model established by Van der Kraan (van der Kraan et al., 1989) for modelling joint disruption in OA in rat.
Intra-articular injection of MIA in rodents reproduces OA-like lesions and functional impairment that can be analyzed and quantified. MIA is an inhibitor of […], disrupting cellular glycolysis and eventually resulting in cell death (van der Kraan et al., 1989).
The MIA pain mouse model described by Pitcher et al. (Pitcher et al. 2016) is used to evaluate the effect of a test compound against tactile allodynia by intra-articular injection of MIA causes chondrocyte cell death, leading to cartilage degeneration and subsequent subchondral bone alterations such as appearance of bone osteophytes (Janusz et al., 2001).
MIA is the one most often used, particularly to test the efficacy of pharmacologic agents to treat pain, as this model generates a reproducible, robust, and rapid pain-like phenotype that can be graded by altering MIA dosage.
Male Sprague Dawley (250-300 g) were housed at 22±1° C. and in light-controlled environment (lights on from 7 am to 8 pm) with ad libitum access to food and water.
Inflammatory hypersensitivity to pain was induced by an injection of Monosodium Iodoacetate (MIA) 25 ul 80 mg/ml solution, into the left knee joint. Animals developed inflammatory response within 3 days post MIA.
The test compounds were administered to the treatment groups on a […] basis, starting from day 3 (D3), and continued until the end-point day on D28.
On day 3, weight-bearing measurements were taken and animals ranked and randomized to treatment groups.
On the test days, pre-dose allodynia was evaluated prior to dosing, and the effects of the administered compounds assessed 2 hours post dosing.
The test compounds were administered to the treatment groups on daily basis, according to treatment group, (some were dosed days 3-7 post MIA, and some were dosed days 24-28 post MIA) and 2 hours post dosing weight-bearing measurements were taken.
The negative control group (n=6) was daily dosed per os with the vehicle (methylcellulose, MC 0.5%), the positive control group (n=10) was daily dosed per os with Celecoxib (50 mg/kg), and the test compound group (n=10) was daily dosed per os, with 0.5% MC/Solutol for days 3-7 post MIA (Inflammatory Phase). […]
For each readout, mean and sem are calculated. A difference statistically significant between intact or treated groups and in MIA vehicle group is evaluated with Prism software using a Two-way ANOVA (for treatment groups) followed by a Dunnett's multiple comparisons post-hoc test. *: p<0.05; **: p<0.01; ***: p<0.001 versus MIA Vehicle group.

COc1cn2nc(CCC(C)(C)O)cc2cc1NC(=O)c1cccn(C2CC2)c1=O [Compound 1, 1-cyclopropyl-N-[2-(3-hydroxy-3-methylbutyl)-6-methoxypyrazolo[1,5-a]pyridin-5-yl]-2-oxopyridine-3-carboxamide]
effect on Lung fibrosis (Ashcroft, SirCol) [1]: statistically significant effect
effect on skin fibrosis (Hydroxyproline) [1]: statistically significant effect
reversal of inflammatory response on weight bearing ([2]; 5 mg/kg daily per os, days 5-7): significantly reversed the inflammatory response
reversal of inflammatory response on weight bearing ([2]; 5 mg/kg daily per os, days 26-28): significantly reversed the inflammatory response
reversal of inflammatory response on weight bearing ([2]; 30 mg/kg daily per os, days 3-7): significantly reversed the inflammatory response
reversal of inflammatory response on weight bearing ([2]; 30 mg/kg daily per os, days 26-28): significantly reversed the inflammatory response
